In article PMC12441834, “Highly Potent and Subtype-Selective Sperm-Specific Potassium Channel SLO3 Inhibitors Display High Tissue Exposure in the Murine Female Reproductive Tract” (ACS Pharmacology & Translational Science, 2025):
Values joined by “and” are separate entries in the source; they are usually repeats but may differ in a detail not shown here. Equal entries are not always repeated.

Tests used:
[1] = tested on: human sperm hyperactivated motility; test: Human sperm motility by CASA; type: cell-based; conditions: for inhibition of human sperm hyperactivated motility, incubation: 10 μM during 2 h in capacitation media; for inhibition of human sperm hyperactivated motility, acute / inhibition at 10 µM: 10 μM for 1 min after 2 h capacitation; for effect on progressive motility of human sperm / effect on total motility of human sperm: 10 μM, acute; for inhibition at 10 µM: Homo sapiens, Sperm, read-out: inhibition of human sperm hyperactivated motility, acute
Description: Human sperm samples were obtained by masturbation from deidentified patients after 3 to 5 days of abstinence. The Washington University Fertility and Reproductive Medicine Center confirmed that they met normal semen parameters according to the World Health Organization (≥15 million sperm per mL, ≥40% total motility, ≥32% progressive motility). Samples were allowed to liquefy for 1 h at room temperature. Sperm were purified by the swim-up method as previously described. , Briefly, within 2 h of production, sperm were allowed to swim up in noncommercial human tubular fluid medium (HTF; 98 mM NaCl, 4.7 mM KCl, 0.4 mM KH2PO4, 2 mM CaCl2, 0.2 mM MgSO4, 20 mM HEPES, 3 mM glucose, 21 mM lactic acid, 0.3 mM sodium pyruvate, pH adjusted to 7.4 with NaOH, 285 mmol/kg osmolarity measured with a VAPRO Vapor Pressure Osmometer 5600, ELITechGroup, Belgium) for 1 h at 37 °C without CO2.
Human sperm collected by swim-up were incubated in capacitating media (HTF + 5 mg/mL of BSA + 25 mM NaHCO3 for 2 h). After this incubation hyperactivated motility was measured by computer-assisted sperm analysis (CASA) as previously described. Briefly, 3 μL of sperm suspension was loaded in a 20-μm Leja standard count four-chamber slide. Motility was measured with a HTR-CEROS II v.1.7 (Hamilton-Thorne Research). Sperm were classified as hyperactivated if they met the following criteria: curvilinear velocity (VCL) > 150 μm/s, lateral head displacement (ALH) > 7.0 μm, and linearity coefficient (LIN) < 50%. For acute inhibition experiments, 10 μM of our compound of interest was added for 1 min prior to recording motility. For inhibitor incubation experiments, the compound of interest or DMSO was added during the 2 h incubation in capacitating media.

[2] = Multispecies hepatocyte MetID; type: in vitro ADME, human; conditions: 4 h incubation with hepatocytes, 10 μM
Description: (§1) Metabolites were identified after preincubating each compound at a 10 μM final concentration with 2.5 × 10^5 hepatocytes from human, dog, cynomolgus monkey, and rat in 200 μL of Optiincubate buffer (BioIVT, Westbury, NY). […] After centrifugation, 60 μL of the supernatant was transferred to 60 μL of water for LC-MS analysis. Samples were analyzed using a Thermo Scientific Vanquish UHPLC consisting of a VH-P10-A pump, a VH-A10-A sampler module, a VH-C10-A column compartment, and the VF-D11-A UV detector coupled to an Orbitrap Fusion Lumos instrument with UVPD. A binary solvent system consisting of (A) water with 0.1% formic acid and (B) acetonitrile with 0.1% formic acid was used with an Accucore Vanquish C18+, 2.1 mm × 100 mm, 1.5 μm, UHPLC column maintained at 40 °C. The data generated by data-dependent acquisition via normal acquisition and AcquireX were processed manually with Thermo Scientific FreeStyle and assisted by Compound Discoverer 3.3.1.111 to aid in the structural assignments.

[3] = Multispecies hepatocyte MetID; type: in vitro ADME, rat; conditions: 4 h incubation with hepatocytes, 10 μM
Description: as §1

Adenosine A2A = Adenosine A2A (Homo sapiens, UniProt P29274); test: LeadProfilingScreen radioligand binding
Chain of Adenosine A2A (P29274 whole entry): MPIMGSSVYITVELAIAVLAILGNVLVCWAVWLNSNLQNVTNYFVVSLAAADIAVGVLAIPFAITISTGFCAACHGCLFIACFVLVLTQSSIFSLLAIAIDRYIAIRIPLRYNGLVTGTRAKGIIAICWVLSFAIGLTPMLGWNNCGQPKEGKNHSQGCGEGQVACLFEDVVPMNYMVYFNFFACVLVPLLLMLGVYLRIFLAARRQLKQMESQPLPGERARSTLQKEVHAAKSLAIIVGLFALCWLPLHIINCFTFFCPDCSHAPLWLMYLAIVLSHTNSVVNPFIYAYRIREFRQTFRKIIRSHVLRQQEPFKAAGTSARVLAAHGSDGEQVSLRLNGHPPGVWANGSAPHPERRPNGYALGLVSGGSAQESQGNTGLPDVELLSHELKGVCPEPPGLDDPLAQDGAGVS

Adrenergic α1A = Adrenergic α1A (Homo sapiens, UniProt P35348); test: LeadProfilingScreen radioligand binding
Chain of Adrenergic α1A (P35348 whole entry): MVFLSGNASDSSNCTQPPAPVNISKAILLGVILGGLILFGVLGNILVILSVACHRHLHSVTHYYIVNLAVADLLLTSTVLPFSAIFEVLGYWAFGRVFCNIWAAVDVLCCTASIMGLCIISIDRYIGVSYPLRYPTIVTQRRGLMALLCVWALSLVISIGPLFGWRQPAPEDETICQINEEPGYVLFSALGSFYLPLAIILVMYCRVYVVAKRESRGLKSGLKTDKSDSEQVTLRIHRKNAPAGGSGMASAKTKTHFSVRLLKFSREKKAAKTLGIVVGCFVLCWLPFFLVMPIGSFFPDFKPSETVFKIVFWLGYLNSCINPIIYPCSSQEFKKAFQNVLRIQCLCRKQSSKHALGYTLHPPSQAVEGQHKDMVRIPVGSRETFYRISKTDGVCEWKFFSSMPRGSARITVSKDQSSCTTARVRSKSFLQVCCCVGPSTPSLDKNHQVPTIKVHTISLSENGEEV

Bradykinin B2 = Bradykinin B2 (Homo sapiens, UniProt P30411); test: LeadProfilingScreen radioligand binding
Chain of Bradykinin B2 (P30411 whole entry): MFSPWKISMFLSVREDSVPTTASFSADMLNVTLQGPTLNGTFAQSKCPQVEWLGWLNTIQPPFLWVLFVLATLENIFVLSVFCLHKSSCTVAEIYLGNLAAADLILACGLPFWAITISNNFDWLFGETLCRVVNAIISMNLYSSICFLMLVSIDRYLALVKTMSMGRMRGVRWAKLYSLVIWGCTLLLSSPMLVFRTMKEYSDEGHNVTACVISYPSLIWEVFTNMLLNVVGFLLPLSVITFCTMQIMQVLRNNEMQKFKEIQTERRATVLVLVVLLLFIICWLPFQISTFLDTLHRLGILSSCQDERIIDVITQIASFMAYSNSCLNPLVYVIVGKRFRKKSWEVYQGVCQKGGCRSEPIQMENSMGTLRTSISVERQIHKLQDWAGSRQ

[4] = tested on: Calcium Channel L-Type, Benzothiazepine; test: LeadProfilingScreen radioligand binding; parameters: species or system rat
Dopamine D1 = Dopamine D1 (Homo sapiens, UniProt P21728); test: LeadProfilingScreen radioligand binding
Dopamine D2S = Dopamine D2S (Homo sapiens, UniProt P14416); test: LeadProfilingScreen radioligand binding
Chain of Dopamine D2S (P14416 1-414 isoform P14416-2): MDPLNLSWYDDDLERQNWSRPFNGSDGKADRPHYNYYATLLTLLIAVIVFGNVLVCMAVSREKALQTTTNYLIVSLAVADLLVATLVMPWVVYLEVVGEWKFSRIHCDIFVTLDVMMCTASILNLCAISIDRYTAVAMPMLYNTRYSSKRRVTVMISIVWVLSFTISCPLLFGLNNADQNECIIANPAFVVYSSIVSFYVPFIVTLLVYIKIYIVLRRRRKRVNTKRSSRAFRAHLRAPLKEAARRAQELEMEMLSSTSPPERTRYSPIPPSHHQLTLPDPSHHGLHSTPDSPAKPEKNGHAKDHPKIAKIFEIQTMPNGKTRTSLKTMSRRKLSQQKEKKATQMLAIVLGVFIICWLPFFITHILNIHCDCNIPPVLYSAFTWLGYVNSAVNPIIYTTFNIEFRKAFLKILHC

Dopamine D3 = Dopamine D3 (Homo sapiens, UniProt P35462); test: LeadProfilingScreen radioligand binding
Chain of Dopamine D3 (P35462 whole entry): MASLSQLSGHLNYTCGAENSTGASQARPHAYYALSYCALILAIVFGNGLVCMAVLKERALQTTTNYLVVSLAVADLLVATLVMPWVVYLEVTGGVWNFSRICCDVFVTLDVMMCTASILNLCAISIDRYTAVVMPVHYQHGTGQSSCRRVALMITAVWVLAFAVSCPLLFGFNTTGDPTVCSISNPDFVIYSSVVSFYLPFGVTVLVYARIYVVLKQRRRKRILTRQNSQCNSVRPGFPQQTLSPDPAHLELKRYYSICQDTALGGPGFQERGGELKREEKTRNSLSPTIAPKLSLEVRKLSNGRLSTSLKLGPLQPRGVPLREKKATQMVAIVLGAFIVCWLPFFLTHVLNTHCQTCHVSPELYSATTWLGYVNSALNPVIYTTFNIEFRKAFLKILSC

Endothelin ETA = Endothelin ETA (Homo sapiens, UniProt P25101); test: LeadProfilingScreen radioligand binding
Endothelin ETB = Endothelin ETB (Homo sapiens, UniProt P24530); test: LeadProfilingScreen radioligand binding
Chain of Endothelin ETB (P24530 27-442): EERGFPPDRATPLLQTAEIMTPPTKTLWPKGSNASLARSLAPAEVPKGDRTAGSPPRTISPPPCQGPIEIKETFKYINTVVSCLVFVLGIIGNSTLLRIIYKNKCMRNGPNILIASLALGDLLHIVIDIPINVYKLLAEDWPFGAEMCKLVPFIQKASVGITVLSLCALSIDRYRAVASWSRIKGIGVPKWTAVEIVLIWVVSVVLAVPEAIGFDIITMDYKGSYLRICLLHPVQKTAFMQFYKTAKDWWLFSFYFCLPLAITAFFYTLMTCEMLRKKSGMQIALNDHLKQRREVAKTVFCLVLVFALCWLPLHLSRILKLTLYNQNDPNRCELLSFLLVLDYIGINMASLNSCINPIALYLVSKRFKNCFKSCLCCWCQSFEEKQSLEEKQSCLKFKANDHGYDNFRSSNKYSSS

[5] = target: Epidermal Growth Factor (EGF) (Homo sapiens, UniProt P00533); test: LeadProfilingScreen radioligand binding
GABAA, Muscimol, Central = test: LeadProfilingScreen radioligand binding; parameters: species or system rat
[6] = target: Leukotriene, Cysteinyl CysLT1 (Homo sapiens, UniProt Q9Y271); test: LeadProfilingScreen radioligand binding
Chain of Leukotriene, Cysteinyl CysLT1 (Q9Y271 whole entry): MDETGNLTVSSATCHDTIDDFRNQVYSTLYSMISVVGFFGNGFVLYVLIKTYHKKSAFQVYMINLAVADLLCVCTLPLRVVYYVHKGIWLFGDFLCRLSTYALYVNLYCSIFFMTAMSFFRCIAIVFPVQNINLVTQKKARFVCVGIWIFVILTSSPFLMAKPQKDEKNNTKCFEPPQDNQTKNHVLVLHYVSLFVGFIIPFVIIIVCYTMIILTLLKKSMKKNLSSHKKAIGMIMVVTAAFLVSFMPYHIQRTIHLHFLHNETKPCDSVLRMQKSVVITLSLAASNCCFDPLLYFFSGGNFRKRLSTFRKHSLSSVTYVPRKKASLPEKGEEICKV

[7] = target: Nicotinic Acetylcholine α1, Bungarotoxin (Homo sapiens, UniProt P02708+P07510+Q07001); test: biochemical; type: binding; conditions: read-out: % inhibition at 10 μM
Phorbol Ester = test: LeadProfilingScreen radioligand binding; parameters: species or system mouse
Potassium Channel [KATP] = Potassium Channel [KATP] (Cricetus cricetus, UniProt Q09427); test: LeadProfilingScreen radioligand binding; parameters: species or system hamster
Description: Both lead compounds, VU6047606 and VU6032735, were subjected to radioligand binding assays in a Eurofins LeadProfilingScreen SafetyScreen Panel to detect potential adverse activity, relative selectivity, and off-target activity. Compounds were screened at 10 μM and percent inhibition was monitored across 68 potential off-target G protein-coupled receptors, ion channels, nuclear hormone receptors, and transporters. ,

hERG potassium channel = hERG potassium channel (Homo sapiens, UniProt Q12809); test: LeadProfilingScreen radioligand binding; conditions: probe [3H]Dofetilide
Chain of hERG potassium channel (Q12809 whole entry): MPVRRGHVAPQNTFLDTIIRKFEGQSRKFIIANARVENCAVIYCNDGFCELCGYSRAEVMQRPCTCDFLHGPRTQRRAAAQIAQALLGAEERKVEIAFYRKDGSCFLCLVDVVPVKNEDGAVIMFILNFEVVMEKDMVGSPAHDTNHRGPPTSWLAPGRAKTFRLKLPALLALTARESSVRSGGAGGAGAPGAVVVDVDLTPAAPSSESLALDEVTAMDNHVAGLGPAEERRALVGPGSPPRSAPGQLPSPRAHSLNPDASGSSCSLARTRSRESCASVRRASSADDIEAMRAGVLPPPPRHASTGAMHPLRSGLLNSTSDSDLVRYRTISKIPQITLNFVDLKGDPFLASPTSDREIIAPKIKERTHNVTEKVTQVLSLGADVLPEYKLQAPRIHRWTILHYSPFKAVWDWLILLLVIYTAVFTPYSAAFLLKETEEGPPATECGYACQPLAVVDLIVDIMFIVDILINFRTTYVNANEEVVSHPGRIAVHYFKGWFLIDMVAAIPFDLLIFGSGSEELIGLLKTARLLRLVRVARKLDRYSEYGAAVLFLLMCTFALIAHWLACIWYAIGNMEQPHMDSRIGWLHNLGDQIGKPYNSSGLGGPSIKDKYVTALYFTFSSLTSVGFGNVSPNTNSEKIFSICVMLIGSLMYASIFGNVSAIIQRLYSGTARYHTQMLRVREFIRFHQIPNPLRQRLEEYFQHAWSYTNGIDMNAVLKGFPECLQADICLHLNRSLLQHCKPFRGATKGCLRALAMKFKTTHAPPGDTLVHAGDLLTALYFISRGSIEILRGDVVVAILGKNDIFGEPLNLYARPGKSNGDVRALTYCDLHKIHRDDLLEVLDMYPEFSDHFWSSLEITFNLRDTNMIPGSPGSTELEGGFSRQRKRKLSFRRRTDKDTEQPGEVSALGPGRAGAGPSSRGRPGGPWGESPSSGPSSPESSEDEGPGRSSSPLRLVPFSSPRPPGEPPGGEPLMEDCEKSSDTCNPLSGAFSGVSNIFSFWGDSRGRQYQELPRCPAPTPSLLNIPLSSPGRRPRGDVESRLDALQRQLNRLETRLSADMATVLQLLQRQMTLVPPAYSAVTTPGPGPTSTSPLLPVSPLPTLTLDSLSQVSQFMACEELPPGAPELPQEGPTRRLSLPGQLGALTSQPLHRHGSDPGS

Rolipram = test: LeadProfilingScreen radioligand binding; parameters: species or system rat
[8] = target: Serotonin (5-Hydroxytryptamine) 5-HT2B (Homo sapiens, UniProt P41595); test: LeadProfilingScreen radioligand binding
Chain of Serotonin (5-Hydroxytryptamine) 5-HT2B (P41595 whole entry): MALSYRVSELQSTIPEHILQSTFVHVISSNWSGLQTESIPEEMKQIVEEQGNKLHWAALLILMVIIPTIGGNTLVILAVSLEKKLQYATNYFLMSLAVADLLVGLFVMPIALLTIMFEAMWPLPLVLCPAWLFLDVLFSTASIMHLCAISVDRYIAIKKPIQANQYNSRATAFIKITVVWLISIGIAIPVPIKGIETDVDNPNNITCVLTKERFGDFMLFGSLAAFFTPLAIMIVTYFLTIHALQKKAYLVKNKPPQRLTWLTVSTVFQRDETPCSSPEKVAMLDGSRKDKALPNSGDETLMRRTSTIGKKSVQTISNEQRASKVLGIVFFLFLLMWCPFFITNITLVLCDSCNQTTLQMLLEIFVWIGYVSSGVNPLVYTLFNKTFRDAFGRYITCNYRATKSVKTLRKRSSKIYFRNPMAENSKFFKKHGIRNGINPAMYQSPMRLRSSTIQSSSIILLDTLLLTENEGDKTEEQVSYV

Sigma σ1 = Sigma σ1 (Homo sapiens, UniProt Q99720); test: LeadProfilingScreen radioligand binding
Chain of Sigma σ1 (Q99720 whole entry): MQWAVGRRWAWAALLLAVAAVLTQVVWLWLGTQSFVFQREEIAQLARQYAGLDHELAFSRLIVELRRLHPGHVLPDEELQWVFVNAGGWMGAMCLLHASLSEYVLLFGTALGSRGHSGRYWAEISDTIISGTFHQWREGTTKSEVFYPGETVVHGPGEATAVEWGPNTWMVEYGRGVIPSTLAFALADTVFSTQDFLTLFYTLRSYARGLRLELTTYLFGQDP

Tachykinin NK1 = Tachykinin NK1 (Homo sapiens, UniProt P25103); test: LeadProfilingScreen radioligand binding
Thyroid Hormone = test: LeadProfilingScreen radioligand binding; parameters: species or system rat
Transporter, GABA = Transporter, GABA (Rattus norvegicus, UniProt P23978); test: LeadProfilingScreen radioligand binding

| Compound | inhibition of human sperm hyperactivated motility, incubation [1] [%] | inhibition of human sperm hyperactivated motility, acute [1] [%] | effect on progressive motility of human sperm [1] | effect on total motility of human sperm [1] | inhibition at 10 µM [1] [%] | % of Parent Related Material, Human [2] | % of Parent Related Material, Rat [3] | inhibition at 10 µM (Adenosine A2A) [%] | inhibition at 10 µM (Adrenergic α1A) [%] | inhibition at 10 µM (Bradykinin B2) [%] | % inhibition at 10 μM [4] [%] | inhibition at 10 µM (Dopamine D1) [%] | inhibition at 10 µM (Dopamine D2S) [%] | inhibition at 10 µM (Dopamine D3) [%] | inhibition at 10 µM (Endothelin ETA) [%] | inhibition at 10 µM (Endothelin ETB) [%] | inhibition at 10 µM [5] [%] | % inhibition at 10 μM (GABAA, Muscimol, Central) [%] | inhibition at 10 µM [6] [%] | inhibition at 10 µM [7] [%] | other results |
| --- | --- | --- | --- | --- | --- | --- | --- | --- | --- | --- | --- | --- | --- | --- | --- | --- | --- | --- | --- | --- | --- |
| Cc1cc(Cl)cc2sc(O[C@H]3CCN(C(=O)CCCS(=O)(=O)c4cccc(Br)c4)C[C@H]3F)nc12 [VU6047606] | 61 | > 70 | without changing | without changing | 71 | 91.66% and > 82% | 90.93% and > 82% | 0 | 4 | 4 | 49 | 25 | -7 | 19 | 5 | 9 | 2 | 1 | 2 | 5 | % inhibition at 10 μM (Phorbol Ester): 22%; inhibition at 10 µM (Potassium Channel [KATP]): -5%; inhibition at 10 µM (hERG potassium channel): 72%; % inhibition at 10 μM (Rolipram): 19%; inhibition at 10 µM [8]: 18%; inhibition at 10 µM (Sigma σ1): 62%; inhibition at 10 µM (Tachykinin NK1): 8%; % inhibition at 10 μM (Thyroid Hormone): 12%; inhibition at 10 µM (Transporter, GABA): 4% |
| O=C(c1ccc(OCc2ccc(OC(F)(F)F)cc2)cc1)N1CCN(c2ccc(C(F)(F)F)cn2)CC1 [VU6032735] | 50 | > 70 | without changing | without changing | 76 | > 98% | > 98% | -6 | -1 | -1 | 67 | 12 | -2 | 3 | 9 | 1 | 5 | 0 | -3 | 2 | % inhibition at 10 μM (Phorbol Ester): 12%; inhibition at 10 µM (Potassium Channel [KATP]): -7%; inhibition at 10 µM (hERG potassium channel): 9%; % inhibition at 10 μM (Rolipram): 7%; inhibition at 10 µM [8]: -6%; inhibition at 10 µM (Sigma σ1): -3%; inhibition at 10 µM (Tachykinin NK1): 7%; % inhibition at 10 μM (Thyroid Hormone): 4%; inhibition at 10 µM (Transporter, GABA): -4% |
